Data as given in patent US20230085307A1, “PYRIDAZINONE COMPOUND AND HERBICIDE” (NISSAN CHEMICAL CORPORATION, priority 2019, published 2023).

Assays:
Japanese bulrush [1] = test: Test Example 1: herbicidal activity, application before weed generation under submerged conditions (Table 16, symbol B); format: in vivo, Japanese bulrush (Schoenoplectus juncoides); conditions: 320 g/ha applied herbicide
How it was run: (§1)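 Submerged Wagner pots (alluvial soil, 4 cm water) sown with weed seeds and planted with 2.5-leaf rice seedlings; emulsifiable concentrate diluted in water applied to water surface on sowing day. Held in greenhouse at 25-30 °C; injury scored 0-5 by herbicidal rate after three weeks.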

windgrass [2] = test: Test Example 5: herbicidal effect by foliage application, plastic box (Table 20, symbol L); format: in vivo, windgrass (Apera spica-venti); conditions: foliage application, 320 g/ha, three weeks after application
How it was run: (§2)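 Foliar spray test: emulsion formulation diluted in water to a set application rate, sprayed onto 14-day-old plants raised in diluvial soil at 25° C to 30° C under glass. Both herbicidal effect and crop effect rated visually three weeks later.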

rice flat sedge = test: Test Example 3: herbicidal effect by foliage application, Wagner pot (Table 18, symbol E); format: in vivo, rice flat sedge (Cyperus iria); conditions: 320 g/ha
How it was run: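 Plants were sown in alluvial soil held under 0.1–0.5 cm standing water and grown 14 days in a greenhouse at 25–30 °C. An emulsifiable formulation, water-diluted to the set dose, was then sprayed onto the foliage, and effects were scored three weeks later using previously defined criteria.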

velvetleaf = test: Test Example 4: herbicidal effect by soil treatment (Table 19, symbol M); format: in vivo, velvetleaf (Abutilon theophrasti); conditions: amount of applied herbicide 320 g/ha
How it was run: (§3)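 Herbicidal effect was rated 3 weeks after treatment, using the scoring criteria of an earlier test. The compound, formulated as an emulsion and diluted in water to a set herbicide amount, had been sprayed uniformly on soil over freshly sown seeds. Growth took place in a greenhouse at 25° C. to 30° C.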

wild oat = test: Test Example 4: herbicidal effect by soil treatment (Table 19, symbol I); format: in vivo, wild oat (Avena fatua); conditions: amount of applied herbicide 320 g/ha
How it was run: as §3

windgrass [3] = test: Test Example 4: herbicidal effect by soil treatment (Table 19, symbol L); format: in vivo, windgrass (Apera spica-venti); conditions: amount of applied herbicide 320 g/ha
How it was run: as §3

oval-leafed pondweed [4] = test: Test Example 2: herbicidal activity, application during weed generation under submerged conditions (Table 17, symbol C); format: in vivo, oval-leafed pondweed (Monochoria vaginalis); conditions: AAH 320 g/ha; application during weed generation, submerged conditions
How it was run: (§4)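 Herbicide emulsion, diluted with water to the chosen amount, is applied onto 4 cm floodwater over alluvial soil where the weeds were co-sown and raised at 25–30° C. Application timing: 1–2 leaves. Assessment: three weeks afterwards.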

Italian ryegrass = test: Test Example 4: herbicidal effect by soil treatment (Table 19, symbol K); format: in vivo, Italian ryegrass (Lolium multiflorum); conditions: amount of applied herbicide 320 g/ha
How it was run: as §3

persian speedwell = test: Test Example 4: herbicidal effect by soil treatment (Table 19, symbol R); format: in vivo, Persian speedwell (Veronica persica); conditions: amount of applied herbicide 320 g/ha
How it was run: as §3

green foxtail [5] = test: Test Example 4: herbicidal effect by soil treatment (Table 19, symbol G); format: in vivo, green foxtail (Setaria viridis); conditions: amount of applied herbicide 320 g/ha
How it was run: as §3

southern crabgrass = test: Test Example 5: herbicidal effect by foliage application, plastic box (Table 20, symbol F); format: in vivo, southern crabgrass (Digitaria ciliaris); conditions: foliage application, 320 g/ha, three weeks after application
How it was run: as §2

chickweed = test: Test Example 5: herbicidal effect by foliage application, plastic box (Table 20, symbol P); format: in vivo, common chickweed (Stellaria media); conditions: foliage application, 320 g/ha, three weeks after application
How it was run: as §2

lambsquarters = test: Test Example 5: herbicidal effect by foliage application, plastic box (Table 20, symbol O); format: in vivo, lambsquarters (Chenopodium album); conditions: foliage application, 320 g/ha, three weeks after application
How it was run: as §2

Japanese bulrush [6] = test: Test Example 2: herbicidal activity, application during weed generation under submerged conditions (Table 17, symbol B); format: in vivo, Japanese bulrush (Schoenoplectus juncoides); conditions: AAH 320 g/ha; application during weed generation, submerged conditions
How it was run: as §4

green foxtail [7] = test: Test Example 5: herbicidal effect by foliage application, plastic box (Table 20, symbol G); format: in vivo, green foxtail (Setaria viridis); conditions: foliage application, 320 g/ha, three weeks after application
How it was run: as §2

oval-leafed pondweed [8] = test: Test Example 1: herbicidal activity, application before weed generation under submerged conditions (Table 16, symbol C); format: in vivo, oval-leafed pondweed (Monochoria vaginalis); conditions: 320 g/ha applied herbicide
How it was run: as §1

Cc1nn(C)c(=O)c(-c2c(-c3ccccc3OC(F)(F)F)sc3ccccc23)c1O [1-030]
Herbicidal effect on B: Japanese bulrush (grade 0-5) (Japanese bulrush [1]): 5 (Herbicidal rate of 90% or more (almost completely withered))
herbicidal effect grade, L: windgrass (windgrass [2]): 5 (Herbicidal rate of 90% or more (almost completely withered))
herbicidal effect on E (rice flat sedge), rating 0-5 (rice flat sedge): 4 (Herbicidal rate of 70% or more and less than 90%)
herbicidal effect rating, M: velvetleaf (velvetleaf): 3 (Herbicidal rate of 40% or more and less than 70%)
herbicidal effect rating, I: wild oat (wild oat): 1 (Herbicidal rate of 5% or more and less than 20%)
herbicidal effect rating, L: windgrass (windgrass [3]): 5 (Herbicidal rate of 90% or more (almost completely withered))
herbicidal effect rating, C: oval-leafed pondweed (oval-leafed pondweed [4]): 3 (Herbicidal rate of 40% or more and less than 70%)
herbicidal effect rating, K: Italian ryegrass (Italian ryegrass): 3 (Herbicidal rate of 40% or more and less than 70%)
herbicidal effect rating, R: persian speedwell (persian speedwell): 5 (Herbicidal rate of 90% or more (almost completely withered))
herbicidal effect rating, G: green foxtail (green foxtail [5]): 4 (Herbicidal rate of 70% or more and less than 90%)
herbicidal effect grade, F: southern crabgrass (southern crabgrass): 5 (Herbicidal rate of 90% or more (almost completely withered))
herbicidal effect grade, P: chickweed (chickweed): 5 (Herbicidal rate of 90% or more (almost completely withered))
herbicidal effect grade, O: lambsquarters (lambsquarters): 5 (Herbicidal rate of 90% or more (almost completely withered))
herbicidal effect rating, B: Japanese bulrush (Japanese bulrush [6]): 3 (Herbicidal rate of 40% or more and less than 70%)
herbicidal effect grade, G: green foxtail (green foxtail [7]): 5 (Herbicidal rate of 90% or more (almost completely withered))
Herbicidal effect on C: oval-leafed pondweed (grade 0-5) (oval-leafed pondweed [8]): 4 (Herbicidal rate of 70% or more and less than 90%)

CCCC(=O)Oc1c(C)nn(C)c(=O)c1-c1c(-c2ccc(C(C)=NOC)cc2)sc2ccccc12 [1-044]
Herbicidal effect on B: Japanese bulrush (grade 0-5) (Japanese bulrush [1]): 5 (Herbicidal rate of 90% or more (almost completely withered))
herbicidal effect grade, L: windgrass (windgrass [2]): 3 (Herbicidal rate of 40% or more and less than 70%)
herbicidal effect on E (rice flat sedge), rating 0-5 (rice flat sedge): 5 (Herbicidal rate of 90% or more (almost completely withered))
herbicidal effect rating, M: velvetleaf (velvetleaf): 0 (Herbicidal rate of 5% or less (almost no effect))
herbicidal effect rating, I: wild oat (wild oat): 0 (Herbicidal rate of 5% or less (almost no effect))
herbicidal effect rating, L: windgrass (windgrass [3]): 0 (Herbicidal rate of 5% or less (almost no effect))
herbicidal effect rating, C: oval-leafed pondweed (oval-leafed pondweed [4]): 1 (Herbicidal rate of 5% or more and less than 20%)
herbicidal effect rating, K: Italian ryegrass (Italian ryegrass): 2 (Herbicidal rate of 20% or more and less than 40%)
herbicidal effect rating, R: persian speedwell (persian speedwell): 5 (Herbicidal rate of 90% or more (almost completely withered))
herbicidal effect rating, G: green foxtail (green foxtail [5]): 4 (Herbicidal rate of 70% or more and less than 90%)
herbicidal effect grade, F: southern crabgrass (southern crabgrass): 4 (Herbicidal rate of 70% or more and less than 90%)
herbicidal effect grade, P: chickweed (chickweed): 5 (Herbicidal rate of 90% or more (almost completely withered))
herbicidal effect grade, O: lambsquarters (lambsquarters): 4 (Herbicidal rate of 70% or more and less than 90%)
herbicidal effect rating, B: Japanese bulrush (Japanese bulrush [6]): 3 (Herbicidal rate of 40% or more and less than 70%)
herbicidal effect grade, G: green foxtail (green foxtail [7]): 5 (Herbicidal rate of 90% or more (almost completely withered))
Herbicidal effect on C: oval-leafed pondweed (grade 0-5) (oval-leafed pondweed [8]): 5 (Herbicidal rate of 90% or more (almost completely withered))

CCOc1cc(F)ccc1-c1sc2ccccc2c1-c1c(O)c(C)nn(C)c1=O [1-061]
Herbicidal effect on B: Japanese bulrush (grade 0-5) (Japanese bulrush [1]): 3 (Herbicidal rate of 40% or more and less than 70%)
herbicidal effect grade, L: windgrass (windgrass [2]): 5 (Herbicidal rate of 90% or more (almost completely withered))
herbicidal effect on E (rice flat sedge), rating 0-5 (rice flat sedge): 5 (Herbicidal rate of 90% or more (almost completely withered))
herbicidal effect rating, M: velvetleaf (velvetleaf): 0 (Herbicidal rate of 5% or less (almost no effect))
herbicidal effect rating, I: wild oat (wild oat): 3 (Herbicidal rate of 40% or more and less than 70%)
herbicidal effect rating, L: windgrass (windgrass [3]): 5 (Herbicidal rate of 90% or more (almost completely withered))
herbicidal effect rating, C: oval-leafed pondweed (oval-leafed pondweed [4]): 4 (Herbicidal rate of 70% or more and less than 90%)
herbicidal effect rating, K: Italian ryegrass (Italian ryegrass): 3 (Herbicidal rate of 40% or more and less than 70%)
herbicidal effect rating, R: persian speedwell (persian speedwell): 5 (Herbicidal rate of 90% or more (almost completely withered))
herbicidal effect rating, G: green foxtail (green foxtail [5]): 5 (Herbicidal rate of 90% or more (almost completely withered))
herbicidal effect grade, F: southern crabgrass (southern crabgrass): 5 (Herbicidal rate of 90% or more (almost completely withered))
herbicidal effect grade, P: chickweed (chickweed): 5 (Herbicidal rate of 90% or more (almost completely withered))
herbicidal effect grade, O: lambsquarters (lambsquarters): 4 (Herbicidal rate of 70% or more and less than 90%)
herbicidal effect rating, B: Japanese bulrush (Japanese bulrush [6]): 3 (Herbicidal rate of 40% or more and less than 70%)
herbicidal effect grade, G: green foxtail (green foxtail [7]): 5 (Herbicidal rate of 90% or more (almost completely withered))
Herbicidal effect on C: oval-leafed pondweed (grade 0-5) (oval-leafed pondweed [8]): 3 (Herbicidal rate of 40% or more and less than 70%)

CCCC(=O)Oc1c(C)nn(C)c(=O)c1-c1c(-c2ccc(OC)c(OC)c2)sc2ccccc12 [1-073]
Herbicidal effect on B: Japanese bulrush (grade 0-5) (Japanese bulrush [1]): 4 (Herbicidal rate of 70% or more and less than 90%)
herbicidal effect grade, L: windgrass (windgrass [2]): 0 (Herbicidal rate of 5% or less (almost no effect))
herbicidal effect on E (rice flat sedge), rating 0-5 (rice flat sedge): 5 (Herbicidal rate of 90% or more (almost completely withered))
herbicidal effect rating, M: velvetleaf (velvetleaf): 4 (Herbicidal rate of 70% or more and less than 90%)
herbicidal effect rating, I: wild oat (wild oat): 2 (Herbicidal rate of 20% or more and less than 40%)
herbicidal effect rating, L: windgrass (windgrass [3]): 1 (Herbicidal rate of 5% or more and less than 20%)
herbicidal effect rating, C: oval-leafed pondweed (oval-leafed pondweed [4]): 5 (Herbicidal rate of 90% or more (almost completely withered))
herbicidal effect rating, K: Italian ryegrass (Italian ryegrass): 5 (Herbicidal rate of 90% or more (almost completely withered))
herbicidal effect rating, R: persian speedwell (persian speedwell): 5 (Herbicidal rate of 90% or more (almost completely withered))
herbicidal effect rating, G: green foxtail (green foxtail [5]): 5 (Herbicidal rate of 90% or more (almost completely withered))
herbicidal effect grade, F: southern crabgrass (southern crabgrass): 5 (Herbicidal rate of 90% or more (almost completely withered))
herbicidal effect grade, P: chickweed (chickweed): 5 (Herbicidal rate of 90% or more (almost completely withered))
herbicidal effect grade, O: lambsquarters (lambsquarters): 5 (Herbicidal rate of 90% or more (almost completely withered))
herbicidal effect rating, B: Japanese bulrush (Japanese bulrush [6]): 5 (Herbicidal rate of 90% or more (almost completely withered))
herbicidal effect grade, G: green foxtail (green foxtail [7]): 5 (Herbicidal rate of 90% or more (almost completely withered))
Herbicidal effect on C: oval-leafed pondweed (grade 0-5) (oval-leafed pondweed [8]): 0 (Herbicidal rate of 5% or less (almost no effect))
